Assay results from US11072806B2, “Gadusol production” (Oregon State University, priority 2018, dated 2021).
Like-named read-outs stand apart in the source and are kept apart here.

Columns and labels:
[1] = in vitro; cited from earlier work
[2] = cited from earlier work; for λmax: enol form at lower pH, enolate form at neutral and basic pH
[3] = system: wild-type RAD1 strain (S288c); test: UVB irradiation of wild-type (RAD1) yeast strain suspended in gadusol-containing supernatant; type: cell-based, S. cerevisiae; settings: higher doses of UVB; cells in 9-fold concentrated supernatant
Description: (§1) While it would be possible to harvest gadusol from naturally occurring sources, this would not be economical for producing the quantities of gadusol needed for commercially relevant sunscreen products. To overcome this and other problems, the inventors have developed methods and compositions that allow for the high efficiency production of gadusol in microorganism host cells, such as yeast. Expressing the biosynthetic genes for gadusol in microorganisms, such as yeast, provides an opportunity to leverage in-depth knowledge of yeast biochemistry to generate a sustainable process. […] The mutant was cultured in YNB+2% glucose supplemented with leucine and lysine at 30° C. for 2 days. […] In 20 ml cultures (n=3), the recombinant yeast culture produced approximately 20 mg/I of gadusol after 5 days (FIG. 34). […] Large-scale production allows for the use of gadusol in pharmaceuticals, formulations, cosmetics or dietary formulations and products. By way of example, formulations may include pills/capsules, creams, lotions, or the like. In embodiments, the present disclosure provides for a synthetic gadusol having UV-protective activity. […] Cells were then irradiated with UVB and spotted in 3 μl aliquots (n=4) onto YEPD plates which were incubated at 30° C. for 24 h. […]

rad1Δ yeast mutant = test: UVB irradiation of UVB-sensitive rad1Δ yeast mutant suspended in gadusol-containing supernatant; type: cell-based, S. cerevisiae; settings: cells at 10^7 cells/mL in 9-fold concentrated supernatant, UVB (302 nm), spotted on YEPD, 24 h at 30° C.
Description: as §1

[4] = Arbeloa et al. 2011, at respective absorbance maxima

Row | Structure (SMILES) | antioxidant activity [1] | extinction coefficient [2, 4] | λmax ([2]; Plack et al. 1981) [nm] | extinction coefficient ([2]; pH 7 in 50 mM phosphate, Plack et al. 1981) | UVB tolerance of wild-type (RAD1) strain [3] | UVB sensitivity of rad1Δ yeast mutant (rad1Δ yeast mutant) | quantum yield of photodecomposition relative to gadusol ([2]; Arbeloa et al. 2011) [times] | photostability ([2]; compared to gadusol)
1 | COC1=C(O)CC(O)(CO)C(O)C1=O (stereo not shown) [gadusol, 3,5,6-trihydroxy-5-hydroxymethyl-2-methoxycyclohex-2-en-1-one] | exhibit antioxidant activity in vitro | 12,400 M^−1 cm^−1 | 269 | 21,800 M^−1 cm^−1 | increases UVB tolerance | suppresses the UVB sensitivity |  | 
2 | COC1=C(O)CC(O)(CO)C(O)C1=O (stereo not shown) [gadusolate] |  | 21,800 M^−1 cm^−1 | 296 |  |  |  | 260 | more photostable
